Positions of bridges follow the written chain, without caps; N, C: chain ends. Non-standard residues stand in square brackets, D forms with d. Residues, ends and D or L forms follow the SMILES beside them. No end group written: not given here.
Legend:
[1] = test system: MCP-1 induced THP-1 migration; experiment: THP-1 trans-well migration assay, MCP-1 as chemoattractant; assay type: cell-based, human; conditions: for ED50 v MCP-1: MCP-1 induced chemotaxis of THP-1 cells; for % inhibition at 100 µM versus MCP-1: THP-1 migration, agent at 100 µM with the cells, n.s. or dash = no statistically significant inhibition; for ED50 (µM) versus MCP-1: inhibition of THP-1 migration, n.s./ns = not statistically significant
Protocol: (§1) To determine whether an agent inhibits a chemokine-induced activity, such as macrophage recruitment, varying amounts of the agent are mixed with cells in the presence of a known chemoattractant. For example, a range of known concentrations of an agent, e.g., a chemokine peptide, is incubated with a defined number (e.g., 10^4 - […]) of human THP-1 monocyte cells in individual wells of the top compartment of a trans-well plate. Chemokine (such as MCP-1, MIP1α, IL8 or SDF-1α), at a concentration known to cause significant migration of THP-1 cells in the trans-well migration assay, is placed in the lower compartment (Figure 1). Cells are then incubated at 37°C for a period sufficient to allow migration, e.g., 4 hours. After incubation, the cells are gently removed from the top of the filter with a pipette, 20 µl of 20 mM EDTA in simple PBS is added into each top well, and incubated for 20 minutes at 4°C. The filter is carefully flushed with media using a gentle flow, and removed. A standard curve consisting of a two-fold dilution series of THP-1 cells (in 29 µl) is prepared to accurately quantify the number of cells that have migrated. Migrated cells are stained with 3 µl of MTT stock dye solution which is added directly into each well (5 mg/ml in RPMI-1640 without phenol red, Sigma Chemical Co.) and incubated at 37°C for 4 hours. The media is carefully aspirated from each well, and the converted dye is solubilized by 20 µl of DMSO. Absorbance of converted dye is measured at a wavelength of 595 nm using an ELISA plate reader. The number of migrated cells in each well is then determined by interpolation of the standard curve (see also Imai et al.,J. Biol. Chem., 272, 15036 (1997)).
Any method suitable for counting cells can be used, for example, counting with a hemocytometer, incubation of the cells with MTT (see above), or FACS analysis. A negative control assay is also performed, using TGF-β or another non-chemokine chemoattractant (e.g., IL1β or TNFα). To assess whether the agent is cytotoxic, the same concentrations of agent are incubated with THP-1 cells. Agents which 1) are not cytotoxic at levels which inhibit migration, 2) are ineffective at inhibiting the negative control-induced migration, and 3) reduce or inhibit chemokine-induced THP-1 migration, are agents which fall within the scope of the invention.
For this assay, THP-1 cells were maintained at a density of 4 × 10^5 cells per ml in RPMI-1640 supplemented with 10% fetal calf serum + 20 µM 2-mercaptoethanol. Chemotaxis was induced in a 96-well disposable chemotaxis chamber fitted with a 5 µM polycarbonate filter (PVP free, ChemoTX, Neuroprobe Inc., Cabin John). […] The framed filter was aligned with the holes in the corner of the filter frame and placed over the wells.
(§2) Five × 10^4 THP-1 cells in 25 µl of RPMI-1640 were added to the upper compartment. Peptides were dissolved in Milli Q water and then serially diluted in culture medium. In most cases, the serially diluted peptides were added to the upper compartment of the chemotaxis chamber. The chamber was incubated at 37°C in a humidified atmosphere of 5% CO2 for 4 hours.
After incubation, the cells were gently removed from the top of the filter with a pipette, 20 µl of 20 mM EDTA in PBS was added into each top well, and the mixture was incubated for 20 minutes at 4°C. The filter was then carefully flushed with media using a gentle flow, and removed. A standard curve was prepared to accurately quantify the number of THP-1 cells that had migrated. The curve was based on a two-fold dilution series of THP-1 cells (top standard 100,000 cells in 29 µl). Cells which had migrated, and in separate wells, the cells in the standards, were stained with 3 µl of MTT stock solution which was added directly into each well (5 mg/ml in RPMI 1640 without phenol red, Sigma Chemical Co.) and incubated at 37°C for 4 hours. The media was carefully aspirated from each well, and the converted dye was solubilized by 20 µl of DMSO. […]

[2] = target: T1, Duffy Antigen Receptor for Chemokines (DARC) (Homo sapiens, UniProt Q16570); experiment: DARC binding: competition with 125I-MCP-1 on red blood cells; conditions: for DARC binding (µM): ns = not significantly different from control, >100 = not determined
T1 sequence (Q16570 1-336): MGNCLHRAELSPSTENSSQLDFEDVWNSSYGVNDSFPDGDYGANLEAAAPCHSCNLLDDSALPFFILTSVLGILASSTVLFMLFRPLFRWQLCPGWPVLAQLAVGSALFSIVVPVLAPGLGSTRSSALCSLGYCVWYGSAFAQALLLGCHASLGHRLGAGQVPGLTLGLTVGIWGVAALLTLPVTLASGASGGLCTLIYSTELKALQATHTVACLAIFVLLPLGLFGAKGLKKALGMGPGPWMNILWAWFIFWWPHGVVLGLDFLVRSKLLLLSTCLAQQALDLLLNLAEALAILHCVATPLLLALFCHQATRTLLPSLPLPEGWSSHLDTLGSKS

[3] = test system: MIP1α induced THP-1 migration; experiment: THP-1 trans-well migration assay, MIP1α as chemoattractant; assay type: cell-based, human; conditions: for ED50 (µM) versus MIP1α: inhibition of THP-1 migration, n.s./ns = not statistically significant
Protocol: as §1
(§3) For this assay, THP-1 cells were maintained at a density of 4 × 10^5 cells per ml in RPMI-1640 supplemented with 10% fetal calf serum + 20 µM 2-mercaptoethanol. Chemotaxis was induced in a 96-well disposable chemotaxis chamber fitted with a 5 µM polycarbonate filter (PVP free, ChemoTX, Neuroprobe Inc., Cabin John). Twenty-nine µl of chemoattractant (recombinant human chemokine; 50 ng/ml, i.e., 5.9 nM) or control (100 ng/ml TGFβ) was added to the lower compartment of each well. The framed filter was aligned with the holes in the corner of the filter frame and placed over the wells.
as §2
(§4) After incubation, the cells were gently removed from the top of the filter with a pipette, 20 µl of 20 mM EDTA in PBS was added into each top well, and the mixture was incubated for 20 minutes at 4°C. The filter was then carefully flushed with media using a gentle flow, and removed. A standard curve was prepared to accurately quantify the number of THP-1 cells that had migrated. The curve was based on a two-fold dilution series of THP-1 cells (top standard 100,000 cells in 29 µl). Cells which had migrated, and in separate wells, the cells in the standards, were stained with 3 µl of MTT stock solution which was added directly into each well (5 mg/ml in RPMI 1640 without phenol red, Sigma Chemical Co.) and incubated at 37°C for 4 hours. The media was carefully aspirated from each well, and the converted dye was solubilized by 20 µl of DMSO. Absorbance of converted dye was measured at a wavelength of 595 nm using an ELISA plate reader. The number of cells that had migrated in each well was determined by interpolation of the standard curve.
(§5) To investigate the receptor specificity of peptide 3 inhibition, the ED50 was determined for peptide 3(1-12)[MCP-1] (SEQ ID NO:1) inhibition of THP-1 migration induced by chemokines which signal through different receptors than MCP-1 receptors. […]

[4] = test system: SDF-1α induced THP-1 migration; experiment: THP-1 trans-well migration assay, SDF-1α as chemoattractant; assay type: cell-based, human; conditions: for ED50 (µM) versus SDF-1α: inhibition of THP-1 migration, n.s./ns = not statistically significant
Protocol: as §1, §3, §2, §4, §5

[5] = THP-1 migration, agent at 100 µM, n.s. or dash = no statistically significant inhibition

Compound	potency as inhibitor of THP-1 migration induced by MCP-1 relative to the D-ala derivative [1] [fold]	ED50 v MCP-1 ([1]; listed as CRD-Cys13Leu4Ile11peptide 3(3-12)[MCP-1]) [µM]	ED50 v MCP-1 ([1]; listed as NR58-3.14.3) [µM]	Duffy selectivity / DARC specificity ratio ([2]; estimated ka for binding to red blood cells divided by average inhibitory ED50)	% inhibition at 100 µM versus MCP-1 [1]	% inhibition at 100 µM versus MCP-1 ([1]; listed as Peptide 1[MCP-1]) [%]	% inhibition at 100 µM versus MCP-1 ([1]; listed as peptide 1[MCP-1]) [%]	ED50 (µM) versus MCP-1 [1]	ED50 (µM) versus MCP-1 ([1]; listed as Peptide 1[MCP-1]) [µM]	% inhibition of the MCP-1 induced migration at 100 µM ([1]; peptide introduced with the chemokine in the lower compartment) [%]	% inhibition at 100 µM versus MIP1α [3, 5]	ED50 (µM) versus MIP1α [3]	% inhibition at 100 µM versus SDF-1α [4, 5]	ED50 (µM) versus SDF-1α [4]	DARC binding (µM) [2]
CC[C@@H](C)[C@H]1NC(=O)[C@@H](CCC(N)=O)NC(=O)[C@H](N)CSSC[C@H](C(N)=O)NC(=O)[C@@H](CC(C)C)NC(=O)[C@@H](CC(=O)O)NC(=O)[C@H]2CCCN2C(=O)[C@@H](CCCCN)NC(=O)[C@@H](CCC(N)=O)NC(=O)[C@@H](CCCCN)NC(=O)[C@@H](Cc2c[nH]c3ccccc23)NC1=O (H-[dC][dQ][dI][dW][dK][dQ][dK][dP][dD][dL][dC]-NH2; disulfide 1-11)	1000	0.001 to 0.01	0.01	> 100											
CC[C@H](C)[C@H](NC(=O)[C@H](C)NC(=O)[C@H](CC(=O)O)NC(=O)[C@@H]1CCCN1C(=O)[C@H](CCC(N)=O)NC(=O)[C@H](C)N)C(=O)N[C@@H](CC(N)=O)C(=O)N[C@@H](C)C(=O)N1CCC[C@H]1C(=O)N[C@H](C(=O)N[C@H](C(=O)N[C@@H](CS)C(=O)N[C@@H](CS)C(=O)O)[C@@H](C)O)C(C)C [Peptide 1] (H-AQPDAINAPVTCC-OH; N-terminus and C-terminus assumed)					n.s.^b	10	10	n.s.^b	> 100	48	n.s.^b	n.s.^b	n.s.	n.s.	
=cvaekpsksstirrysc= ([dC][dV][dA][dE][dK][dP][dS][dK][dS][dS][dT][dI][dR][dR][dY][dS][dC]; bridge 1-17 (inferred); not fully specified; printed as =cvaekpsksstirrysc=)								ns				ns		ns	ns
CSYRRITSSKSPKEAVC								ns				ns		ns	ns

— patent EP2386565A2, “Compounds and methods to inhibit or augment an inflammatory response” (Cambridge Enterprise Ltd., priority 1999, dated 2000)
